These results are taken from paper PMC8398983, “Triarylborane Dyes as a Novel Non-Covalent and Non-Inhibitive Fluorimetric Markers for DPP III Enzyme” (Molecules, 2021).

Common to all, as to test: fluorimetric titration, […] fit
Holding throughout (format): binding

Assay [1] addresses T1, hDPP III (Homo sapiens, UniProt Q9NY33, E451A).
T1 construct: gene DPP3; recombinant, C-terminal His-tag, expressed in E. coli from pET21b, Ni-NTA purified
T1 sequence (Q9NY33 2-737 E451A): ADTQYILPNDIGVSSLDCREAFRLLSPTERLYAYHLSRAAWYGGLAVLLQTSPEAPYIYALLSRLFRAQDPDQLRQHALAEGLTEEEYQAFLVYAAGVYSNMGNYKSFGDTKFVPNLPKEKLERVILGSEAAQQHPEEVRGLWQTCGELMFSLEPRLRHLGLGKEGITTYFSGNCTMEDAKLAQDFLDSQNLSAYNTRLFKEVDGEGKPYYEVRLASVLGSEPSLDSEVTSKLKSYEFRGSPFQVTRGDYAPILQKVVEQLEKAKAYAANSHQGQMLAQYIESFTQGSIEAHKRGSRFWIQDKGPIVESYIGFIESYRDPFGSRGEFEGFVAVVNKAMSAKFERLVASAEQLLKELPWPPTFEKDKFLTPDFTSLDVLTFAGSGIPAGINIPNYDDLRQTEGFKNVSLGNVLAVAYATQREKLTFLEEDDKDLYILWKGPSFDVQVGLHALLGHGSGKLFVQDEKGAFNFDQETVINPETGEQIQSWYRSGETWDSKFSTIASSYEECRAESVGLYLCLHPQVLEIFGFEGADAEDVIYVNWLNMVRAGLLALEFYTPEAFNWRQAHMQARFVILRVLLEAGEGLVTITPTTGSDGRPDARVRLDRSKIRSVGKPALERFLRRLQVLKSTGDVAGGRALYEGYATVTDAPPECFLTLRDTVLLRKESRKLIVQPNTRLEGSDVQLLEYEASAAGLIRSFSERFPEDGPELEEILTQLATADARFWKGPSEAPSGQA
Particulars: read-out: logKs (converted).

Assay [2] addresses T2, hDPP III (Homo sapiens, UniProt Q9NY33).
T2 construct: gene DPP3; recombinant, C-terminal His-tag, expressed in E. coli from pET21b, Ni-NTA purified
T2 sequence (Q9NY33 2-737): T1 sequence (Q9NY33 2-737 E451A) with A450E
Particulars: TRIS-HCl buffer I = 0.02 M, pH 7.4.

Assay [3] deals with T3, BSA (bovine serum albumin) (Bos taurus, UniProt P02769).
T3 construct: gene ALB; commercial native protein (Sigma Aldrich), mature serum albumin
T3 sequence (P02769 25-607): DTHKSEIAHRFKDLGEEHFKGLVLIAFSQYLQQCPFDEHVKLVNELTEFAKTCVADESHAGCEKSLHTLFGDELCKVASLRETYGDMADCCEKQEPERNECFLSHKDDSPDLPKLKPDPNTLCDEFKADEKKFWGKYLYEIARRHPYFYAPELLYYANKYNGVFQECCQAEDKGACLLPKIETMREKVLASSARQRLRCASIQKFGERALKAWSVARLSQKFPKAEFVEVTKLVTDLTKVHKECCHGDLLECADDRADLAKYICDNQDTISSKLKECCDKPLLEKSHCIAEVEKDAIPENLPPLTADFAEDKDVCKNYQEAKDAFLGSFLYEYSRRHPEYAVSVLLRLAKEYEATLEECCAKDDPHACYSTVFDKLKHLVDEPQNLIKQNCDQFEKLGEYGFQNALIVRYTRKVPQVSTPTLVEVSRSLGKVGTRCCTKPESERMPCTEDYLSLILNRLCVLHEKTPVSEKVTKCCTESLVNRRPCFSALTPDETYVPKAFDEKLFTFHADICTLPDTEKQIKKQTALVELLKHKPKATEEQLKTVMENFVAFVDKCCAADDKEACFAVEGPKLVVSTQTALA
As to conditions: read-out: logKs (converted).

Residue numbers refer to the chain shown, from its start.

On to `Cc1cc(-c2cn(C(CCCCN)C(=O)O)nn2)cc(C)c1B(c1c(C)cc(N(C)C)cc1C)c1c(C)cc(N(C)C)cc1C` (stereo not drawn) [compound 1, Triaryl-borane-amino acid conjugate 1], for which the figures for the Kd (on hDPP III [1]; in assay [3]) were 251 nM and 501 nM, respectively. In addition, on hDPP III [2] (λexc 400 nm), the logKs entry is “performed fluorimetric titrations with wild type (wt) hDPP III”.

Turning to `Cc1cc(-c2cn(C(CCCCNC(=O)CCCc3ccc4ccc5cccc6ccc3c4c56)C(=O)O)nn2)cc(C)c1B(c1c(C)cc(N(C)C)cc1C)c1c(C)cc(N(C)C)cc1C` (stereo not drawn) [compound 2, Triaryl-borane-amino acid-pyrene conjugate 2], the Kd (at hDPP III [1]; in assay [3]) was 398 nM throughout. For the same compound, the logKs entry on hDPP III [2] (λexc 342 and 403 nm) is recorded as “performed fluorimetric titrations with wild type (wt) hDPP III”.
